Test results reported in article PMC11068671, “New-generation biofilm effective antimicrobial peptides and a real-time anti-biofilm activity assay: CoMIC” (Applied Microbiology and Biotechnology, 2024).
In brackets after ≈: the same amount, converted by molar mass. Non-standard residues stand in square brackets, D forms with d. Residues, ends and D or L forms follow the SMILES beside them. No end group written: not given here.

Assays:
[1] = tested on: E. coli ATCC25922; assay type: cell-based
Text: (§1) NET1, NET2, NET3, and NET4 peptide antibiotics were used in the experiments. For the purpose of the study, both clinical isolates Methicillin-Resistant S. aureus (MRSA), Vancomycin-resistant Enterococcus (VRE), E. coli ER2566, E. coli 13846 bacteria and ATCC strains S. aureus and E. coli bacteria were used in the MIC study. All strains used in this study have been deposited in a strain collection of the Research Laboratory of Acibadem Mehmet Ali Aydinlar University. For experiment 0.5 McFarland bacterial suspension was prepared in Müeller Hinton Broth (MHB) media. In the 96-well plate, serial dilutions of peptide antibiotics starting from 512 to 0 μg/mL were made in MHB media and added 5 µl of bacterial suspensions. After incubated overnight at 37°C, results were evaluated according to turbidity (Teh et al. [2017]). Ampicillin was used as positive controls.

[2] = tested on: S. aureus ATCC25923; assay type: cell-based
Text: as §1

[3] = tested on: E. coli ER2566; assay type: cell-based
Text: as §1

[4] = tested on: S. aureus ATCC29213; assay type: cell-based
Text: as §1

[5] = tested on: E. coli NTCC13846; assay type: cell-based
Text: as §1

[6] = tested on: MRSA biofilm; test: Antibiofilm activity, conventional crystal violet (CV) method; assay type: cell-based, Methicillin-resistant S. aureus
Procedure: There was 90 µL of 10^6 CFU/mL MRSA in MHB media with fructose transferred into wells. Then, 10 µL of 1:2 serial dilutions of the antimicrobial peptides (1280–0 µg/mL) was added in wells. So that, final concentrations of peptides were 128–0 µg/mL. Plates were incubated at 37°C overnight. After overnight incubation, they were analyzed with conventional CV method. For this purpose, the bacterial cultures were removed, and wells were washed with distilled water. 200 µl of 1% CV dye was added to each well and incubated at room temperature for 15 min in the dark. Then, CV dye was removed, and wells were washed with water. After dried the plate in an oven at 45–50°C, 33% acetic acid was added into wells to dissolve the dye and wells were spectrophotometrically read by Varioscan (Thermo, USA) at 590 nm (Stepanović et al. [2000]). Biofilm inhibiton rates (%) were calculated by the following formula (Liu et al. [2021]): (1-A590ofwellstreatedwithpeptides/[…])×100
Before this calculation, the values obtained from all wells were subtracted from the value from the empty wells (Blank).

[7] = target: Proteinase K (Parengyodontium album, UniProt P06873); test: Protease resistance, Proteinase K treatment with HPLC analysis; assay type: in vitro ADME; conditions: analytical HPLC
Procedure: Proteinase K was used for testing the resistance of the designed peptides to proteases, since Proteinase K, a serine protease with broad-spectrum cleavage activity that preferentially cleaves aliphatic and aromatic amino acid residues, is widely used in the literature to determine the protease resistance of antimicrobial peptides (Lucio et al. [2017], Wang et al. [2019]). Afterwards, HPLC characterization was performed to understand the effect of Proteinase K on peptides.

[8] = tested on: MRSA biofilm; test: Antibiofilm activity, CoMIC method; assay type: cell-based, Methicillin-resistant S. aureus; conditions: peptides added just before the start of biofilm formation
Procedure: Ninety microliters of 0.5 McF Methicillin-resistant S. aureus (MRSA) (1.5×10^8 CFU/mL) in Congo Red Broth media with fructose was transferred into wells. Plates were incubated at 37°C. At the time just before the start of biofilm formation as optimized in Fig. 4, 10 µL of 1:2 serial dilutions of the antimicrobial peptides (2560–0 µg/mL) was added in wells. So that, final concentrations of peptides were 256–0 µg/mL. Incubation of media continued overnight. Then, wells were evaluated according to their black color formation.

[9] = tested on: E. coli; test: SEM of cell membrane integrity; assay type: cell-based; conditions: 16 µg/mL peptide, 10^5 CFU/mL, 37°C, 4–5 h
Procedure: The effect of NET1 peptides on the integrity of E. coli cell membranes was shown by SEM (Wang et al. [2018]). […] Peptide molecules were mixed with 10^5 CFU/mL of E. coli and incubated at 37°C for 4–5 h. […] After incubation, 20 µL of the mixture containing peptide antibiotics and bacteria was applied to a dialysis membrane. Then, it was fixed and imaged by the SEM microscope. As a negative control, bacteria which was not treated with peptide molecules were also used.

[10] = tested on: erythrocytes; assay type: cell-based
Procedure: Hemolytic activity assays were carried out using erythrocytes, using triton X-100 as lysis control agent. Hemolytic activities were analyzed by reading each well with a plate reader spectrophotometer device at 414 nm and the % lysis rate was calculated in Microsoft Excel according to the following formula (Eren et al. [2008]). Lysis%=[OD414-OD414blank]/[OD414totallysis-OD414blank]×100

[11] = tested on: VRE; assay type: cell-based, Vancomycin-resistant Enterococcus
Text: as §1

[12] = tested on: HaCaT cell line; test: in vitro; assay type: cell-based
Text: (§2) MTT Cell Proliferation Kit (Sigma), a colorimetric method, was used for this test to evaluate the damage that peptides can cause in eukaryotic cells and all cell lines used in this study have been deposited in a collection of the Research Laboratory of Acibadem Mehmet Ali Aydinlar University. The cell lines of 3T3 (ATCC CRL-1658) and HaCaT (ATCC PCS-200-011) were revived under appropriate culture conditions and made ready for the experiment. The final concentration of peptides reached 64 to 0.5 μg/mL. Samples were worked in triplicates for each concentration. Cells incubated without peptide-treatment under the same conditions were used as a control. Magainin II, a known natural AMP that has no cytotoxic effects, was used as a positive control (Bacalum and Radu [2015]). The results were analyzed by reading them with a 96-well plate reader at 550 and 690 nm.

[13] = tested on: 3T3 cell line; test: in vitro; assay type: cell-based
Text: as §2

[14] = in vitro; assay type: cell-based
Text: as §2

[15] = tested on: MRSA; assay type: cell-based, Methicillin-Resistant S. aureus
Text: as §1

[16] = tested on: Staphylococcus aureus; design: method as in Dean et al. [2011]; conditions: ref Dean et al. [2011]; cited from earlier work

Sequence of Proteinase K (P06873 106-384): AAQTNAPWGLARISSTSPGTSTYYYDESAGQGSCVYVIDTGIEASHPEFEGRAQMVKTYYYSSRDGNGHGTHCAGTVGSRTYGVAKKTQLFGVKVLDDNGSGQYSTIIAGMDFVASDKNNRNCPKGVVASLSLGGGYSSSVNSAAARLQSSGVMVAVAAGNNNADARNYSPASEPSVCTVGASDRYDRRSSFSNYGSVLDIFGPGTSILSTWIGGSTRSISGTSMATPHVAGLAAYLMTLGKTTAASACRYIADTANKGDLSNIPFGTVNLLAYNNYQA

Molecule | MIC [1] [µg/mL] | MIC [2] [µg/mL] | MIC [3] [µg/mL] | MIC [4] [µg/mL] | MIC [5] [µg/mL] | concentration that provided over 50% biofilm inhibition ([6]; CV method) [µg/mL] | Peptide concentration inhibiting the biofilm at 100%, Crystal Violet ([6]; peptides added at the very beginning of culture) [µg/mL] | resistance to proteases (HPLC after proteinase K treatment) [7] | Peptide concentration inhibiting the biofilm at 100%, CoMIC [8] [µg/mL] | effect on E. coli cells seen by SEM [9] | HC50 value as times the MIC value [10] | therapeutic index for hemolytic activities [10] | MIC [11] [µg/mL] | IC50 value as times the MIC value [12] | therapeutic index for cytotoxic activities [12] | therapeutic index for cytotoxic activities [13] | IC50 ([14]; human) [µg/mL] | IC50 ([14]; mouse) [µg/mL] | MIC [15] [µg/mL] | activity of the D-form, times lower than L-form [16] [times]
CC(C)C[C@@H](NC(=O)[C@H](CCCNC(=N)N)NC(=O)[C@@H](CC(C)C)NC(=O)[C@@H](CC(C)C)NC(=O)[C@@H](CC(C)C)NC(=O)[C@@H](N)CCCNC(=N)N)C(=O)N[C@H](CC(C)C)C(=O)N[C@@H](CCCNC(=N)N)C(=O)N[C@@H](CCCNC(=N)N)C(=O)N[C@H](CC(C)C)C(=O)N[C@H](CC(C)C)C(=O)N[C@@H](CCCNC(=N)N)C(=O)N[C@H](CC(C)C)C(=O)N[C@H](CC(C)C)C(=O)N[C@H](CC(C)C)C(=O)N[C@@H](CCCNC(=N)N)C(N)=O [NET1, RLLLRLLRRLLRLLLR-NH2] (H-R[dL][dL][dL]R[dL][dL]RR[dL][dL]R[dL][dL][dL]R-NH2; N-terminus assumed) | 2 (≈ 0.959 µM) | 4 (≈ 1.92 µM) | <0.25 | 2 (≈ 0.959 µM) | 4 (≈ 1.92 µM) | 2 | 4 | not fractionated by proteases | 64 | lethal to E. coli | 16–32 times | 32 | 0.5 (≈ 0.24 µM) | 16-32 times | 32 | 16 | 64 (≈ 30.7 µM) | 32 (≈ 15.3 µM) | 2 (≈ 0.959 µM) | –
LL-37: LL-37 peptide, only D-form compared with only L-form in a cited study (LLGDFFRKSKEKIGKEFKRIVQRIKDFLRNLVPRTES; not fully specified; also: all-D and all-L forms; UniProt P49913 134-170, looked up) | – | – | – | – | – | – | – | – | – | – | – | – | – | – | – | – | – | – | – | 10
